# According to patent US11986507B1, “Micronutrient composition to improve men's health” (priority 2023, dated 2024):
# Legend:
# Assay type in all cases: cell-based
# [1] = system: Mouse Leyden TM3 cells; assay: Testosterone production assay in TM3 cells under pro-inflammatory conditions (TNF alpha); details: 10 ng/ml TNFa; for effect on testosterone secretion (in words): 48 h, in the presence and absence of DHEA (FIG. 3)
# Method: (§1) Testosterone production assay: Mouse Leyden TM3 cells (ATCC) were cultured at 37° C., 5% CO2, in growth medium: 1:1 mixture of Ham's F12 medium and Dulbecco's modified Eagle's medium with 2.5 mM L-Glutamine, 0.5 mM Sodium Pyruvate, 1.2 g/L Sodium Bicarbonate and 15 mM HEPES, 92.5%; horse serum, 5%; fetal bovine serum, 2.5%. TM3 cells were seeded in 96-well plates covered with fibronectin or collagen (COSTAR) in […] growth medium. After reaching confluency cells were supplied with tested components in 100 mcl growth medium for 48 hour incubation. In some tests we also used additions of TNF alpha at 1 ng/ml and 10 ng/ml as indicated in appropriate figure legends. Testosterone content in 50 mcl conditioned cell culture medium samples was assayed with testosterone ELISA assay (DRG #EIA-1559) as described in the manufacturer's protocol.
# It is known that chronic inflammation, such as in the presence of TNF alpha, can suppress testosterone production, which has physiological implications as it is related to an increased risk of infertility. Incubation was for 48 h with 10 ng/ml TNFa (all samples) and 1 mcg/ml DHEA or w/o DHEA. Data are presented as % of no additions Control. We evaluated the effects of micronutrients on testosterone production in Leydig cells exposed to a proinflammatory factor—TNF alpha.
# [2] = system: Human aortic smooth muscle cells (AoSMC); assay: Collagen gel contraction by AoSMC; details: individual components (FIG. 6)
# Method: Collagen gel contraction by AoSMC: Gel Contraction Assay: Human aortic smooth muscle cells (AoSMS) were obtained from Lonza Corporation and cultured in DMEM cell culture medium (ATCC) supplemented with 5% fetal bovine serum (ATCC). For experiments cells were suspended in DMEM medium at 500,000 per mL by trypsinization and mixed with equal volume of 2 mg/ml bovine skin collagen (Sigma) solution in DMEM. Resulting cell suspension was distributed at 300 mcl per well of plastic 24 well plate pretreated with 10 mg/ml bovine serum albumin in phosphate buffered saline. Collagen gels, formed in the wells after one hour incubation at 37° C., were supplemented with 500 mcl DMEM containing indicated amounts of tested compounds. After 24 hours incubation at 37° C. pictures of the wells were taken with digital photo camera and gel surface area was measured in pixels using ImageJ scientific software. Gel contraction was expressed as percentage of unsupplemented control using the following formula: (No Cell Control Gel Area−Tested Sample Gel Area)/(No Cell Control Gel Area−Not Supplemented Control Gel Area)*100%. All experiments were done in triplicates and results are expressed as mean values+/−SD.
# [3] = system: IL6 release by Human Aortic Endothelial Cells (HAEC); assay: IL6 secretion by human aortic endothelial cells (HAEC) in the presence of LPS (ELISA); details: 24 h, 20 ng/ml LPS, with 200 mcM Ascorbate or w/o Ascorbate (FIG. 13)
# Method: Cytokine assay in Human Aortic endothelial cells (AoEC): Human Aortic endothelial cells (AoEC, Lonza) were cultured in EBG-2 cell culture medium (Lonza) and used in experiments at 5-8 passages. AoEC were seeded in 96-well plates covered with fibronectin or collagen (COSTAR) in 100 mcl/well growth medium. After reaching confluency cells were supplemented with tested components in 100 mcl growth medium for 48 hour incubation. Levels of cytokines were assayed with corresponding ELISA assays (R&D Systems).
# The test was carried out by incubating HAEC cells for 24 h in the presence of 20 ng/ml LPS (all samples) and 200 mcM Ascorbate or w/o Ascorbate.
# [4] = system: Mouse Leyden TM3 cells; assay: Testosterone production assay in TM3 cells, normal conditions (testosterone ELISA)
# Method: as §1
# The concentration of ingredients were Rosemary extract 20 mcg/ml, Fenugreek-20 mcg/ml, Cassia nomane—20 mcg/ml, 3′3-di indolylmethylene—5 mcg/ml, Zinc—2 mcg/ml, Phosphatidylserine—20 mcg/ml, Vitamin D—5 mcg/ml, Niacin—20 mcg/ml, Theanine—2 mcg/ml, Aspartic acid—2 mcg/ml, Arginine—2 mcg/ml and DHEA—2 mcg/ml.
molecule,measurement,setting,value
Oc1ccc(C=Cc2cc(O)cc(O)c2)cc1 [resveratrol],effect on testosterone secretion (in words),[1],decreasing
"CC(=O)[O-].CC(=O)[O-].[Zn+2] [zinc, Zinc Acetate Dihydrate]",effect on testosterone secretion (in words),[1],decreasing
same,SMC relaxation by individual compounds,[2],69%
Phosphatidylserine,effect of individual compounds on IL-6 secretion (in words),[3],significant inhibitory effect
"C=C1CC[C@H](O)C/C1=C/C=C1\CCC[C@]2(C)[C@@H]([C@H](C)CCCC(C)C)CC[C@@H]12 [Vitamin D, Cholecalciferol]","testosterone secretion, % of Control",[4]; 11 mcg/ml (FIG. 2),115 % of Control
same,effect of individual compounds on IL-6 secretion (in words),[3],significant inhibitory effect
"C[C@]12CC[C@H](O)CC1=CC[C@@H]1[C@@H]2CC[C@]2(C)C(=O)CC[C@@H]12 [DHEA, Dehydroepiandrosterone]",increase of testosterone secretion compared to control,[4]; 11 mcg/ml (FIG. 2),1402%
same,"testosterone secretion, % of Control",[4]; 11 mcg/ml (FIG. 2),1402 % of Control
same,increase of testosterone secretion compared to control,[4]; 33 mcg/ml (FIG. 2),2361%
same,increase of testosterone secretion compared to control,"[4]; applied individually, DHEA 2 mcg/ml (FIG. 1)",161%
same,decrease of testosterone secretion compared to normal Control,"[1]; 1 mcg/ml DHEA, 48 h (FIG. 3)",about 48%
